Data: PubChem BioAssay AID1259407 (Chemical Carcinogenesis Research Information System (CCRIS), 2018)
Active and inactive are the calls of the source. The rule behind the calls is not given here.

Test system: CCRIS mutagenicity, Ames/micronucleus/aberration tests
Test: CCRIS mutagenicity studies

Measured: mutagenic call

CS(C)=O
inactive: End Point: IN VITRO CHROMOSOMAL ABERRATIONS, Test System: CHO-LB CELLS, Metabolic Activation: NONE inactive; negative | End Point: IN VITRO CHROMOSOMAL ABERRATIONS, Test System: CHO-LB CELLS, Metabolic Activation: RAT, LIVER, S-9, AROCLOR 1254 inactive; negative | Test System: AMES SALMONELLA TYPHIMURIUM, Strain/Indicator: TA97, Metabolic Activation: HAMSTER, LIVER, S-9, AROCLOR 1254 (10 OR 30%), Method: PREINCUBATION inactive; negative | Test System: AMES SALMONELLA TYPHIMURIUM, Strain/Indicator: TA97, Metabolic Activation: NONE, Method: PREINCUBATION inactive; negative | Test System: AMES SALMONELLA TYPHIMURIUM, Strain/Indicator: TA97, Metabolic Activation: NONE, Method: PREINCUBATION (20 MIN) inactive; negative | Test System: AMES SALMONELLA TYPHIMURIUM, Strain/Indicator: TA97, Metabolic Activation: NONE, Method: STANDARD PLATE inactive; negative | Test System: AMES SALMONELLA TYPHIMURIUM, Strain/Indicator: TA97, Metabolic Activation: RAT, LIVER, S-9, AROCLOR 1254 (10 OR 30%), Method: PREINCUBATION inactive; negative | Test System: AMES SALMONELLA TYPHIMURIUM, Strain/Indicator: TA97, Metabolic Activation: RAT, LIVER, S-9, AROCLOR 1254, Method: STANDARD PLATE inactive; negative | Test System: AMES SALMONELLA TYPHIMURIUM, Strain/Indicator: TA97, Metabolic Activation: RAT, LIVER, S-9, PHENOBARBITAL AND 5,6-BENZOFLAVONE, Method: PREINCUBATION (20 MIN) inactive; negative | Test System: AMES SALMONELLA TYPHIMURIUM, Strain/Indicator: TA98, Metabolic Activation: HAMSTER, LIVER, S-9, AROCLOR 1254 (10 OR 30%), Method: PREINCUBATION inactive; negative | Test System: AMES SALMONELLA TYPHIMURIUM, Strain/Indicator: TA98, Metabolic Activation: NONE, Method: FLUCTUATION (MICROTITER) inactive; negative | Test System: AMES SALMONELLA TYPHIMURIUM, Strain/Indicator: TA98, Metabolic Activation: NONE, Method: PREINCUBATION inactive; negative | Test System: AMES SALMONELLA TYPHIMURIUM, Strain/Indicator: TA98, Metabolic Activation: NONE, Method: PREINCUBATION (20 MIN) inactive; negative | Test System: AMES SALMONELLA TYPHIMURIUM, Strain/Indicator: TA98, Metabolic Activation: NONE, Method: STANDARD PLATE inactive; negative | Test System: AMES SALMONELLA TYPHIMURIUM, Strain/Indicator: TA98, Metabolic Activation: RAT LIVER S-9, AROCLOR 1254, Method: FLUCTUATION (MICROTITER) inactive; negative | Test System: AMES SALMONELLA TYPHIMURIUM, Strain/Indicator: TA98, Metabolic Activation: RAT, LIVER, S-9, AROCLOR 1254 (10 OR 30%), Method: PREINCUBATION inactive; negative | Test System: AMES SALMONELLA TYPHIMURIUM, Strain/Indicator: TA98, Metabolic Activation: RAT, LIVER, S-9, AROCLOR 1254, Method: STANDARD PLATE inactive; negative | Test System: AMES SALMONELLA TYPHIMURIUM, Strain/Indicator: TA98, Metabolic Activation: RAT, LIVER, S-9, PHENOBARBITAL AND 5,6-BENZOFLAVONE, Method: PREINCUBATION (20 MIN) inactive; negative | Test System: AMES SALMONELLA TYPHIMURIUM, Strain/Indicator: TA100, Metabolic Activation: HAMSTER, LIVER, S-9, AROCLOR 1254 (10 OR 30%), Method: PREINCUBATION inactive; negative | Test System: AMES SALMONELLA TYPHIMURIUM, Strain/Indicator: TA100, Metabolic Activation: NONE, Method: PREINCUBATION inactive; negative | Test System: AMES SALMONELLA TYPHIMURIUM, Strain/Indicator: TA100, Metabolic Activation: NONE, Method: PREINCUBATION (20 MIN) inactive; negative | Test System: AMES SALMONELLA TYPHIMURIUM, Strain/Indicator: TA100, Metabolic Activation: NONE, Method: STANDARD PLATE inactive; negative | Test System: AMES SALMONELLA TYPHIMURIUM, Strain/Indicator: TA100, Metabolic Activation: RAT, LIVER, S-9, AROCLOR 1254 (10 OR 30%), Method: PREINCUBATION inactive; negative | Test System: AMES SALMONELLA TYPHIMURIUM, Strain/Indicator: TA100, Metabolic Activation: RAT, LIVER, S-9, AROCLOR 1254, Method: STANDARD PLATE inactive; negative | Test System: AMES SALMONELLA TYPHIMURIUM, Strain/Indicator: TA100, Metabolic Activation: RAT, LIVER, S-9, PHENOBARBITAL AND 5,6-BENZOFLAVONE, Method: PREINCUBATION (20 MIN) inactive; negative | Test System: AMES SALMONELLA TYPHIMURIUM, Strain/Indicator: TA102, Metabolic Activation: NONE, Method: PREINCUBATION (20 MIN) inactive; negative | Test System: AMES SALMONELLA TYPHIMURIUM, Strain/Indicator: TA102, Metabolic Activation: RAT, LIVER, S-9, PHENOBARBITAL AND 5,6-BENZOFLAVONE, Method: PREINCUBATION (20 MIN) inactive; negative | Test System: AMES SALMONELLA TYPHIMURIUM, Strain/Indicator: TA104, Metabolic Activation: NONE, Method: PREINCUBATION (20 MIN) inactive; negative | Test System: AMES SALMONELLA TYPHIMURIUM, Strain/Indicator: TA104, Metabolic Activation: RAT, LIVER, S-9, PHENOBARBITAL AND 5,6-BENZOFLAVONE, Method: PREINCUBATION (20 MIN) inactive; negative | Test System: AMES SALMONELLA TYPHIMURIUM, Strain/Indicator: TA1535, Metabolic Activation: HAMSTER, LIVER, S-9, AROCLOR 1254 (10 OR 30%), Method: PREINCUBATION inactive; negative | Test System: AMES SALMONELLA TYPHIMURIUM, Strain/Indicator: TA1535, Metabolic Activation: NONE, Method: PREINCUBATION inactive; negative | Test System: AMES SALMONELLA TYPHIMURIUM, Strain/Indicator: TA1535, Metabolic Activation: NONE, Method: PREINCUBATION (20 MIN) inactive; negative
